Read-outs that look alike come from different tables or passages of the source. Starred links: 1 amine or outer side, 2 acyl side, 3 side chain; linkers in the order of their positions; H or OH if unused. Positions of bridges follow the written chain, without caps; N, C: chain ends. Non-standard residues stand in square brackets, D forms with d. Residues, ends and D or L forms follow the SMILES beside them. *: point of attachment. Orn(4R-OH,5R-OCH2CH2NMe3+) = C[N+](C)(C)CCO[C@@H](N[*:3])[C@H](O)C[C@H](N[*:1])C(=O)[*:2]; pTerphenylCO(4''-OnC5H11) = CCCCCOc1ccc(-c2ccc(-c3ccc(C(=O)*)cc3)cc2)cc1; hTyr(3S-OH,4S-OH) = N[C@H](C(=O)O)[C@H](O)[C@@H](O)c1ccc(O)cc1; Pro(3S-OH,4S-Me) = C[C@H]1CN[C@H](C(=O)O)[C@H]1O; Hyp = O=C(O)[C@@H]1C[C@@H](O)CN1
Experiments:
[1] = Cynomolgus monkey pharmacokinetics, i.v. bolus; parameters: species or system cynomolgus monkeys; details: in vivo, iv, male cynomolgus monkeys, single 2.13 mg/kg slow i.v. bolus, plasma, LC-MS/MS, noncompartmental
Description: A single dose of 2.13 mg/kg CD101 or 2.8 mg/kg anidulafungin was administered by slow i.v. bolus (∼10 min) to cynomolgus monkeys (n = 3/group), and blood samples (via peripheral vein) were drawn for plasma processing at 0.167, 0.5, 1, 3, 8, 12, 24, 48, and 72 h postdose.
(§1) For each of the pharmacokinetic studies, whole-blood samples (K3EDTA as anticoagulant) were collected and centrifuged within 30 min of collection. The resulting plasma was harvested and stored at −20°C until analysis. Tissue samples were homogenized by a bead-based homogenizer following the addition of deionized water to excised tissue in a 2:1 (vol/wt) ratio and stored at −20°C until analysis. Prior to analysis, plasma or homogenized tissue samples were quenched with acetonitrile (3:1, acetonitrile-plasma or tissue ratio) containing an appropriate internal standard (isotopically labeled d9-CD101 [mouse and rat] or a structural analog [dog, monkey, and chimpanzee]). Plasma and tissue homogenate concentrations (quantified against calibration standards processed the same way) were determined by reverse-phase, gradient liquid chromatography with tandem mass spectrometric detection (LC-MS/MS) using an AB-SCIEX API 3200Q/4000 mass spectrometry system. Calibration standard ranges were the following: 0.400 (lower limit of quantitation, [LLOQ]) to 200 μg/ml (CD101, mouse), 0.040 (LLOQ) to 10 μg/ml (anidulafungin, mouse), 0.002 (LLOQ) to 10 μg/ml (CD101, rat), 0.005 (LLOQ) to 10 μg/ml (anidulafungin, rat), 0.050 (LLOQ) to 10 μg/ml (CD101, dog), 0.020 (LLOQ) to 10 μg/ml (anidulafungin, dog), 0.010 (LLOQ) to 10 μg/ml (CD101, monkey), 0.001 (LLOQ) to 10 μg/ml (anidulafungin, monkey), 0.015 (LLOQ) to 10 μg/ml (CD101, chimpanzee), and 0.015 (LLOQ) to 10 μg/ml (anidulafungin, chimpanzee). When necessary, dilutions with blank matrix were made for samples that quantified above the upper limit of quantitation. The methods used in the analysis were qualified as fit for purpose: calibration standards were matrix matched with the exception that human plasma calibration standards were used to analyze chimpanzee plasma samples due to the rarity of blank chimpanzee plasma, and, for each analytical batch, triplicate calibration standards were included at the beginning, approximately in the middle, and at the end of the batch. Following analysis, quantitation was carried out by a calibration curve comprising the analyte/internal standard area ratio versus concentration. Analytical batch acceptance followed the general guidance that triplicate standards/quality controls be within ±20% for accuracy (percentage of nominal concentration) and ≤20% for precision (percent coefficient of variation).
(§2) Pharmacokinetic parameters were calculated by noncompartmental analysis using Phoenix WinNonlin (version 6.3; Pharsight, Mountain View, CA) from either individual or mean (mouse) concentration-time profiles. An unpaired t test was used to compare mean exposures from male and female rats.

[2] = human plasma; ref [9]; cited from earlier work
Excerpt: In the case of brain concentrations, there was little difference across all the collection intervals. Given the relatively low concentrations and small differences across times, measured concentrations may reflect contamination from residual whole blood during the collec ...

[3] = Chimpanzee pharmacokinetics, i.v. infusion; format: in vivo, chimpanzees
Description: A single 1-mg/kg dose of CD101 or anidulafungin was administered by i.v. infusion (1 h) to female chimpanzees (n = 2/group), and blood samples (via peripheral vein) were drawn for plasma processing at the midpoint of infusion, at the end of infusion, at 2, 4, 8, 12, 24, 48, and 72 h postdose, and on days 5, 7, and 10 postdose.
as §1, §2

[4] = Dog pharmacokinetics, i.v. bolus; details: in vivo, iv, male beagle dogs, single 1.4 mg/kg slow i.v. bolus, plasma, LC-MS/MS, noncompartmental
Description: as §1, §2

[5] = Excretion in bile duct-cannulated rats; format: in vivo, Sprague-Dawley rats; details: for dose excreted at 120 h: bile duct-cannulated male Sprague-Dawley rats, single 5 mg/kg i.v. bolus, over 5 days, n = 3
Description: In one of three rat studies reported here, a single 5-, 15-, or 45-mg/kg dose of CD101 was administered by slow i.v. bolus (∼3 min) to Sprague-Dawley rats (n = 3 to 5/dose). Blood samples (via jugular vein catheter [JVC]) were drawn for plasma processing at 0.083, 0.25, 0.5, 1, 2, 4, 8, 24, 48, 120, 168, and 240 h after dosing. In the second rat study, conducted to assess tissue distribution, a single 5-mg/kg dose of CD101 was administered by slow i.v. bolus (∼3 min) to male Sprague-Dawley rats (n = 3 animals/time point). Blood samples (via cardiac puncture) were collected for plasma processing predose and at 0.083, 0.5, 1, 2, 4, 8, 24, 48, 72, 96, and 120 h postdose. In parallel with blood collection, animals were euthanized, and tissues (liver, lungs, kidneys, heart, spleen, and brain) were excised and frozen prior to analysis. In the third rat study, conducted to assess excretion, a single 5-mg/kg dose of CD101 was administered by slow i.v. bolus (∼3 min) to bile duct-cannulated male Sprague-Dawley rats (n = 3). Bile samples were collected from each animal into prelabeled bile collection tubes predose and at 0 to 8, 8 to 24, 24 to 48, 48 to 72, 72 to 96, and 96 to 120 h postdose; urine samples were collected from each animal at the same time points pre- and postdose.
as §1, with “Analytical batch acceptance followed the general guidance that triplicate standards/quality controls be within ±20% for accuracy (percentage of nominal concentration) and ≤20% for precision (percent coefficient of variation).” left out

[6] = in vivo, iv, female chimpanzees, single 1 mg/kg i.v. infusion (1 h), plasma, LC-MS/MS, noncompartmental, n = 2

CCCCCOc1ccc(-c2ccc(-c3ccc(C(=O)N[C@H]4C[C@@H](O)[C@@H](OCC[N+](C)(C)C)NC(=O)[C@@H]5[C@@H](O)[C@@H](C)CN5C(=O)[C@H]([C@@H](C)O)NC(=O)[C@H]([C@H](O)[C@@H](O)c5ccc(O)cc5)NC(=O)[C@@H]5C[C@@H](O)CN5C(=O)[C@H]([C@@H](C)O)NC4=O)cc3)cc2)cc1 [CD101] ({pTerphenylCO(4''-OnC5H11)}-[Orn(4R-OH,5R-OCH2CH2NMe3+)]T[Hyp][hTyr(3S-OH,4S-OH)]T[Pro(3S-OH,4S-Me)]; lactam 1-C)
AUC(0-t) ([1]; n = 3): 92.1 µg·h/mL | Cmax ([1]; n = 3): 9070 ng/mL | Tmax ([1]; n = 3): 0.167 h | half-life ([1]; n = 3): 39.7 h | clearance ([1]; n = 3, read-out: CL (clearance)): 0.405 mL/min/kg | Vd ([1]; n = 3, read-out: Vss (volume of distribution at steady state)): 0.597 L/kg | protein bound [2]: 98.7% | clearance fold lower than anidulafungin ([3]; chimpanzee, 1 mg/kg i.v. infusion, 0.06 versus 0.42 ml/min/kg, n = 2/group): over 7 fold | t1/2 fold longer than anidulafungin ([3]; chimpanzee, 1 mg/kg i.v. infusion, 81 versus 30 h, n = 2/group): 2.7 fold | AUC(0-inf) [3, 6]: 302 µg·h/mL | AUC(0-t) [3, 6]: 290 µg·h/mL | Cmax [3, 6]: 7150 ng/mL | Tmax [3, 6]: 1 h | half-life [3, 6]: 80.7 h | clearance ([3]; in vivo, iv, female chimpanzees, single 1 mg/kg i.v. infusion (1 h), plasma, LC-MS/MS, noncompartmental, n = 2, read-out: CL (clearance)): 0.0568 mL/min/kg | Vd ([3]; in vivo, iv, female chimpanzees, single 1 mg/kg i.v. infusion (1 h), plasma, LC-MS/MS, noncompartmental, n = 2, read-out: Vss (volume of distribution at steady state)): 0.4 L/kg | AUC(0-t) ([4]; n = 4): 48.7 µg·h/mL | Cmax ([4]; n = 4): 1570 ng/mL | Tmax ([4]; n = 4): 4.98 min | clearance ([4]; n = 4, read-out: CL (clearance)): 0.301 mL/min/kg | dose excreted ([5]; male, Sprague-Dawley, rat, bile plus faeces, iv, bile duct-cannulated rats, 5 mg/kg i.v., bile plus feces): ~50% | biotransformation in plasma, bile samples, and excreta ([5]; nonradiolabeled material, rats, data not shown): no biotransformation was observed | dose excreted at 120 h ([5]; rat, faeces, iv, intact drug, read-out: mean cumulative amount excreted into feces, % of total dose): 27.7% | dose excreted at 120 h ([5]; rat, iv, intact drug, read-out: mean cumulative amount excreted into bile, % of total dose): 22.6% | dose excreted at 120 h ([5]; rat, urine, iv, read-out: total dose recovered in urine): 1.4%

From article PMC5365648, “Pharmacokinetics of the Novel Echinocandin CD101 in Multiple Animal Species” (Antimicrobial Agents and Chemotherapy, 2017)
